Our source for the IC50 values is US5696117A, “Benzoxazine antimicrobial agents” (Ortho Pharmaceutical Corporation, priority 1995, dated 1997).

Counter-ions that a name gives are not always drawn.

The experiment concerns the target T1, Kinase A and SpoOF (Bacillus subtilis, UniProt P16497).
T1 construct: made in house; host or cells: recombinant E. coli (overexpression)
T1 sequence (P16497 1-606): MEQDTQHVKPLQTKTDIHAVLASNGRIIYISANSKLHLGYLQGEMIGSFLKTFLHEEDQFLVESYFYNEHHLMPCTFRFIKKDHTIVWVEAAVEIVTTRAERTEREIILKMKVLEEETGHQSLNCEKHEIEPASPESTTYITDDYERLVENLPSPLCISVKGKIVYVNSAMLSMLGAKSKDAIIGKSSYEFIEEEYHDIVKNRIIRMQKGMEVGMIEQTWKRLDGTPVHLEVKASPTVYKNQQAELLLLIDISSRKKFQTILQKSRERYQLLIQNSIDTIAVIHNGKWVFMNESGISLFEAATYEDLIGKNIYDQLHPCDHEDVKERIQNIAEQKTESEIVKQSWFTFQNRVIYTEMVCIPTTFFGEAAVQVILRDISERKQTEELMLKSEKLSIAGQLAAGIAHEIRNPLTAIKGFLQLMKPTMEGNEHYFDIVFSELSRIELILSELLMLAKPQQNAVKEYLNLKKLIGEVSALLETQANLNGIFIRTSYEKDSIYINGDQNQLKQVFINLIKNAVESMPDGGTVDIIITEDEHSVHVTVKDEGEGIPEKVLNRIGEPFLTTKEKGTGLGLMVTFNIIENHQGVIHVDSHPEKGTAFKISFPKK
Put plainly: Autophosphorylation of Kinase A and Transphosphorylation of SpoOF Assay (HPK in vitro assay). In kind it is biochemical. As to conditions: inhibition of KinA autophosphorylation / SpoOF transphosphorylation, inhibitor concentrations from 1 to 500 μM. The method, then:
1. Autophosphorylation of Kinase A and Transphosphorylation of SpoOF Assay
To study the effect of the compounds of the present invention on the signal transduction process in bacteria, the inhibiting effect of the compounds on the sporulation operon proteins Kinase A and SpoOF was examined. Specifically, the inhibition of autophosphorylation of Kinase A and the transphosphorylation of SpoOF was determined in the following assays. The SpoOF response regulator is the primary substrate for phosphorylation by the protein kinase, Kin A, involved in the sporulation process in bacteria. See D. Burbulys, K. A. Trach, J. A. Hoch, Cell, 64, 545-552 (1991). SpoOF and KinA were prepared from recombinant E. coli overexpressing the proteins (J. Cavanagh et al, Amino Acids, 6, 131-140 (1994) and references therein).
The following stock reagents were either prepared and used promptly or stored at the indicated temperature:
8× Salts: 2M KCl (5 mL), 1M MgCl2 (800 mL), 1M CaCl2 (100 mL), 10 mg/mL phenylmethylsulfonyl fluoride (200 mL), 1M dithioreitol (50 mL), 0.25M Na2 EDTA (32 mL) and H2 O 3.82 mL (-20° C.)
5× Loading Dye: 0.5M TRIS-HCl-pH 6.8 (7.5 mL), 10% SDS (2 mL) 0.1% bromophenol blue (0.5 mL), 100% glycerol (3 mL) and 12.5M 2-mercaptoethanol (0.3 mL)
1-1.3 mg/mL KinA:15 mM TRIS-HCl, pH 8.0, 6 mM KCl; 4 mM 2-mercaptoethanol; 40% glycerol (-20° C.)
1 mg/mL SpoOF: 17.5 mM TRIS-HCl, pH 8.0; 0.7 mM KCl; 0.7 mM MgCl2; 0.7 mM CaCl2; 5mM 2-mercaptoethanol; 30% Glycerol (-20° C.)
5% Stacking Gel: 40% 29:1 acrylamide:bis acrylamide (1.25 mL), 0.5M TRIS-HCl, pH 6.8 (2.5 mL), 10% SDS (0.1 mL), D-H2 O (6.15 mL) 10% ammonium persulfate (100 mL) and TEMED (25 mL)
SDS Running Buffer: TRIS-BASE (3.02 g), glycine (14.4 g) SDS (1 g), D-H2 O (to 1 L)
The reaction mixture was prepared from 8× Salts (87 μL), 1M TRIS, pH 8 (118 μL), 50% glycerol (63 μL), SpoOF (14.1 μL) and KinA (7.0 μL). Microcentrifuge tubes were charged with the reaction mixture (18.5 μL) and a 1.0 mM solution of the test compound in 5% DMSO (18.5 μL), and incubated for 15 min on ice. 100 mM ATP solution (3.0 μl, containing 625 μCi [^32 P]ATP) was added, and the mixture left for 10 minutes at room temperature. The reaction was quenched with 5× loading dye (10 μL per tube) and the samples were loaded on a prepared 5% Stacking Gel, or stored on dry ice until ready for use. The prepared wells were filled with SDS Running Buffer, samples were loaded into the wells, and 80 volts were applied to the gel until the dye front reached the bottom of the stacking gel. The voltage was then increased to 250 volts until electrophoresis was complete. Radioactive bands in the gel corresponding to phosphorylated KinA and SpoOF were imaged and quantitated with a phosphoimager.
If either enzyme was inhibited (as evidenced by the absence of labelled protein in the developed gel), an IC50 was calculated by running the assay with a range of inhibitor concentrations from 1 to 500 μM. After electrophoresis of the reaction mixtures, percent inhibition was determined by measuring the concentration of radioactive phosphorus with a phosphoimager and calculating the values using a software program (BioRad Molecular Analyst). IC50 values of less than 500 μM are considered active.
Broadly, the IC50 is the concentration that inhibits the measured activity by half. Higher therefore signals weaker potency in that assay. With `N=C(N)NCCc1ccc(OCCC2Oc3cccnc3N(Cc3cccc(Cl)c3)C2=O)cc1` (stereo not drawn) [Compound 25, 4-(3-Chlorobenzyl)-3,4-dihydro-2-[2-[4-(2-guanidinoethyl)phenoxy]ethyl]-3-oxo-2H-pyrido[3,2-b]-1,4-oxazine], the half-inhibitory concentration (IC50) is recorded as 41 µM.

Compound `CC(C)(C)OC(=O)N=C(NCCc1ccc(OCCC2Oc3ccccc3N(Cc3ccccc3)C2=O)cc1)NC(=O)OC(C)(C)C` (stereo not drawn) [Compound 27] returned a 50% inhibitory concentration (IC50) of 340 µM.

`N=C(N)NCCc1ccc(OCCC2Oc3ccccc3N(Cc3ccccc3)C2=O)cc1` (stereo not drawn) [Compound 28, 4-Benzyl-3,4-dihydro-2-{2-[4-[2-guanidinoethyl]phenoxy]ethyl}-3-oxo-2H-1,4-benzoxazine Hydrochloride 0.7 Hydrate] yielded an IC50 of 44 µM.

Turning to `COc1ccccc1CN1C(=O)C(CCOc2ccc(CCNC(=N)N)cc2)Oc2ccccc21` (stereo not drawn) [Compound 29, 3,4-Dihydro-2-{2-[4-(2-guanidinoethyl)phenoxy]ethyl}-4-(2-methoxybenzyl)-3-oxo-2H-1,4-benzoxazine], the IC50 was 54 µM.

With `N=C(N)NCCc1ccc(OCCC2Oc3ccccc3N(Cc3cccc(F)c3)C2=O)cc1` (stereo not drawn) [Compound 31, 3,4-Dihydro-4-(3-fluorobenzyl)-2-{2-[4-(2-guanidinoethyl)phenoxy]ethyl}-3-oxo-2 H-1,4-benzoxazine], the concentration for half-maximal inhibition (IC50) amounted to 46 µM.

Turning to `COc1cccc(CN2C(=O)C(CCOc3ccc(CCNC(=N)N)cc3)Oc3ccccc32)c1` (stereo not drawn) [Compound 33, 3,4-Dihydro-2-{2-[4-(2-guanidinoethyl)phenoxy]ethyl}-4-(3-methoxybenzyl)-3-oxo-2H-1,4-benzoxazine], the concentration for half-maximal inhibition (IC50) is on record as 145 µM.

Compound `N=C(N)NCCc1ccc(OCCC2Oc3ccccc3N(Cc3cccc(OCc4ccccc4)c3)C2=O)cc1` (stereo not drawn) [Compound 35, 4-(3-Benzyloxybenzyl)-3,4-dihydro-2-{2-[4-(2-guanidinoethyl)phenoxy]ethyl}-3-oxo-2H-1,4-benzoxazine] yielded an IC50 of 24 µM.

`N=C(N)NCCc1ccc(OCCC2Oc3ccccc3N(Cc3cccc(O)c3)C2=O)cc1` (stereo not drawn) [Compound 36, 3,4-Dihydro-2-{2-[4-(2-guanidinoethyl)phenoxy]ethyl}-4-(3-hydroxybenzyl)-3-oxo-2H-1,4-benzoxazine] showed an IC50 of 72 µM.

`COc1ccc(CN2C(=O)C(CCOc3ccc(CCNC(=N)N)cc3)Oc3ccccc32)cc1` (stereo not drawn) [Compound 37, 3,4-Dihydro-2-{2-[4-(2-guanidinoethyl)phenoxy]ethyl}-4-(4-methoxybenzyl)-3-oxo-2H-1,4-benzoxazine]: the IC50 is 51 µM.

On to `N=C(N)NCCc1ccc(OCCC2Oc3ccccc3N(Cc3ccc(-c4ccccc4)cc3)C2=O)cc1` (stereo not drawn) [Compound 38, 3,4-Dihydro-2-{2-[4-(2-guanidinoethyl)phenoxy]ethyl}-3-oxo-4-(4-phenylbenzyl)-2H-1,4-benzoxazine], for which the IC50 is recorded as 34 µM.

Turning to `N=C(N)NCCc1ccc(OCCC2Oc3ccccc3N(Cc3ccncc3)C2=O)cc1` (stereo not drawn) [Compound 42, 3,4-Dihydro-2-{2-[4-(2-guanidinoethyl)phenoxy]ethyl}-3-oxo-4-(4-picolyl)-2H-1,4-benzoxazine], the half-maximal inhibitory concentration (IC50) came out at 444 µM.

`N=C(N)NCCc1ccc(OCCC2Oc3ccccc3N(Cc3cccc4ccccc34)C2=O)cc1` (stereo not drawn) [Compound 43, 3,4-Dihydro-2-{2-[4-(2-guanidinoethyl)phenoxy]ethyl}-4-(1-naphthylmethyl)-3-oxo-2H-1,4-benzoxazine] gave an IC50 of 13 µM.

`N=C(N)NCCc1ccc(OCCC2Oc3ccccc3N(Cc3ccc4ccccc4c3)C2=O)cc1` (stereo not drawn) [Compound 45, 3,4-Dihydro-2-{2-[4-(2-guanidinylethyl)phenoxy]ethyl}-4-(2-naphthylmethyl)-3-oxo-2H-1,4-benzoxazine] returned a half-inhibitory concentration (IC50) of 17 µM.

`N=C(N)NCCc1ccc(OCCC2Oc3ccccc3N(Cc3ccsc3)C2=O)cc1` (stereo not drawn) [Compound 46, 3,4-Dihydro-2-{2-[4-(2-guanidinylethyl)phenoxy]ethyl}-3-oxo-2H-4-(3-thienylmethyl)-1,4-benzoxazine]: the IC50 came out at 68 µM.

On to `CC(C)(C)OC(=O)N=C(NCCc1ccc(OCCC2Oc3ccccc3N(Cc3csc(Cl)c3)C2=O)cc1)NC(=O)OC(C)(C)C` (stereo not drawn) [Compound 47, 2-{2-[4-[2-(N,N-Bis-tert-butoxycarbonylguanidino)ethyl]phenoxy]ethyl}-4-(2-chloro-4-thienylmethyl)-3,4-dihydro-3-oxo-2H-1,4-benzoxazine], for which the half-maximal inhibitory concentration (IC50) turned out to be 398 µM.

Compound `N=C(N)NCCc1ccc(OCCC2Oc3ccccc3N(Cc3csc(Cl)c3)C2=O)cc1` (stereo not drawn) [Compound 48, 4-(2-Chloro-4-thienylmethyl)-3,4-dihydro-2-{2-[4-(2-guanidinoethyl)phenoxy]ethyl}-3-oxo-2H-1,4-benzoxazine] showed a half-maximal inhibitory concentration (IC50) of 26 µM.

In turn, `N=C(N)NCCc1ccc(OCCC2Oc3ccc(-c4ccccc4)cc3N(Cc3cccc(Cl)c3)C2=O)cc1` (stereo not drawn) [Compound 52, 4-(3-Chlorobenzyl)-3,4-dihydro-2-{2-[4-(2-guanidinoethyl)phenoxy]ethyl}-3-oxo-6-phenyl-2H-1,4-benzoxazine] showed a concentration for half-maximal inhibition (IC50) of 36 µM.

The compound `CC(C)(C)OC(=O)N=C(NCCc1ccc(OCCC2Oc3ccc(C(F)(F)F)cc3N(Cc3cccc(Cl)c3)C2=O)cc1)NC(=O)OC(C)(C)C` (stereo not drawn) [Compound 53, 2-{2-[4-[2-(N,N'-Bis-tert-butoxycarbonylguanidino)ethyl]phenoxy]ethyl}-4-(3-chlorobenzyl)-3,4-dihydro-3-oxo-6-trifluoromethyl-2H-1,4-benzoxazine] returned a 50% inhibitory concentration (IC50) of 84 µM.

`N=C(N)NCCc1ccc(OCCC2Oc3ccc(C(F)(F)F)cc3N(Cc3cccc(Cl)c3)C2=O)cc1` (stereo not drawn) [Compound 54, 4-(3-Chlorobenzyl)-3,4-dihydro-2-{2-[4-(2-guanidinoethyl)phenoxy]ethyl}-3-oxo-6-trifluoromethyl-2H-1,4-benzoxazine]: the 50% inhibitory concentration (IC50) was determined as 14 µM.

`N=C(N)NCCc1ccc(OCCC2Oc3cc(F)ccc3N(Cc3cccc(Cl)c3)C2=O)cc1` (stereo not drawn) [Compound 55, 4-(3-Chlorobenzyl)-3,4-dihydro-7-fluoro-2-{2-[4-(2-guanidinoethyl)phenoxy]ethyl}-3-oxo-2H-1,4-benzoxazine] registered an IC50 of 28 µM.

The compound `N=C(N)NCCc1ccc(OCCC2Oc3c(Cl)cc(Cl)cc3N(Cc3cccc(Cl)c3)C2=O)cc1` (stereo not drawn) [Compound 57, 4-(3-Chlorobenzyl)-6,8-dichloro-2-{2-[4-(2-guanidinoethyl)phenoxy]ethyl}-3,4-dihydro-3-oxo-2H-1,4-benzoxazine] gave an IC50 of 17 µM.
